Here are results for four compounds from ChEMBL document CHEMBL1201862, “PubChem BioAssay data set” (2004).

Activity calls are given as the source filed them.

In experiment [1] the target is Neurotensin receptor type 1 (Homo sapiens, UniProt P30989). The class given is functional.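 Also: Image-based confirmatory dose-response assay measuring agonist activity at NTR1; NTR1-expressing U2OS osteosarcoma cells imaged for beta-arrestin GFP spot formation; agonist potency where compounds increase beta-arrestin recruitment.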
For experiment [2], the target named is T1, Microphthalmia-associated transcription factor (Homo sapiens, UniProt O75030).
T1 sequence (O75030 whole entry): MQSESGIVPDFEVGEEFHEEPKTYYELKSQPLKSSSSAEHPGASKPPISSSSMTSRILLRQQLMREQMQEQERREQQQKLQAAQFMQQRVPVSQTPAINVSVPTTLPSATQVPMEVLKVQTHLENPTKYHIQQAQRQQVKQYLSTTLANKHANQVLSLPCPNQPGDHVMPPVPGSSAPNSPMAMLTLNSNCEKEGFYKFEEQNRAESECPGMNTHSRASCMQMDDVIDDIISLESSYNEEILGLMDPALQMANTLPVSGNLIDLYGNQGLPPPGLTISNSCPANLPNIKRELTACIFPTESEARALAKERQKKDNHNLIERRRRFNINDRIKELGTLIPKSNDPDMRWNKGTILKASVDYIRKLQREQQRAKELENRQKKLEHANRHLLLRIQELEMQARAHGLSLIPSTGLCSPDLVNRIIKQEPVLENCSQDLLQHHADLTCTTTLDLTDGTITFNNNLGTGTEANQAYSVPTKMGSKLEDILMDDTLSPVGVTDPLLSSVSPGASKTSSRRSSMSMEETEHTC
As to the kind of experiment: TRPM1 promoter luciferase signal decrease, dose response, MITF inhibitor project, cell-based, SK-MEL-5, cherry-picked, set 3 (AID 493073).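 Also: SK-MEL-5 melanoma cells with luciferase driven by the MITF target TRPM1 promoter.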 Format: functional.

A further experiment deals with Vero. Description: cells. Format: functional. The settings on record: Chlorocebus sabaeus.
Experiment [3] has as its target Luciferin 4-monooxygenase (Photinus pyralis, UniProt P08659). Description: firefly luciferase enzyme inhibitors, dose response, biochemical, luminescence (AID 1891).
The next experiment can be described thus: cells. Format: functional.
Experiment [4] is described as follows: inhibitors of SNCA 5'UTR-driven reporter translation, confirmation, H4 neuroglioma cells, luminescence (AID 1988). The class given is functional, cell-based.
The nature of experiment [5]: Luminescence Cell-Based Dose Response HTS to Identify Inhibitors of 5'UTR Stem-Loop Driven Prion Protein mRNA Translation in H4 Neuroglioblastoma Cells. [Related pubchem assays: 1827 (Project Summary), 1813 (Primary HTS)]. Format: functional.
A further experiment has as its system HEK293. As to the kind of experiment: inhibitors of LMP1-driven NF-kB reporter, dose response, cell-based, HEK293, luciferase, cherry-pick (AID 588343). The class given is functional. The settings on record: Homo sapiens.
Experiment [6] in a line: inhibition of ADP-Glo detection reagents, dose response, artefact control for CDK5 inhibitor project, biochemical, luminescence, cherry-picked samples, set 2 (AID 504546). Format: functional. A general note: ADP-Glo turns the ADP formed in a reaction into a luminescent signal.
Experiment [7] can be described thus: inhibitors of firefly luciferase expression or activity, dose response, H4 neuroglioma cells, luminescence (AID 1990). Format: functional, cell-based.
Experiment [8] can be described thus: Luminescence Cell-Based Dose Confirmation HTS to Identify Inhibitors of Platelet Dense Granule Release. [Related pubchem assays: 1663 (Primary HTS), 1678 (Summary of Project)]. The class given is functional.
The target in experiment [9] is Cyclin-dependent kinase 5/CDK5 activator 1 (Homo sapiens, UniProt Q00535). Description: CDK5/p35 kinase inhibitors, dose response, biochemical, cherry-picked samples, set 2 (AID 504545).
For the next experiment, the target named is T2, Estrogen receptor (Homo sapiens, UniProt P03372).
T2 sequence (P03372 whole entry): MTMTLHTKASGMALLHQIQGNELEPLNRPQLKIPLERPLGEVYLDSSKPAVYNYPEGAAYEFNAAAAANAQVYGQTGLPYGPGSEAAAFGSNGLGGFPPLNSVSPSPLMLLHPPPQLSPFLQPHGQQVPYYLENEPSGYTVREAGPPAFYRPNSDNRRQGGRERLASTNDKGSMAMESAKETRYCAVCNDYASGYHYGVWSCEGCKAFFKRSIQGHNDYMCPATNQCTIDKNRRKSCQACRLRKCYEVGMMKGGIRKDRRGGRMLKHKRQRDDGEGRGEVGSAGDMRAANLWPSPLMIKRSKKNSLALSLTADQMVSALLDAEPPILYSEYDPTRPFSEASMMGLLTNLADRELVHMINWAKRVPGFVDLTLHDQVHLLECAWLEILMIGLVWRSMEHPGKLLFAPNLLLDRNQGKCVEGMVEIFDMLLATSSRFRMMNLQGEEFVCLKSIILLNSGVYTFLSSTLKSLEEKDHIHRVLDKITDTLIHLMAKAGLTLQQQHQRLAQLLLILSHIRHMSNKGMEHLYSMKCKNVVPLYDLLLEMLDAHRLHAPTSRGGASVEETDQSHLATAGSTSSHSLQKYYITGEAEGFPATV
As to the kind of experiment: potentiators of ERα–SRC-1 coactivator binding, dose response, biochemical, TR-FRET, ERα LBD (AID 737).

Experiment [10] in a line: THP-1 cell cytotoxicity, dose response, cytotoxicity control for non-replicating M. tuberculosis project (AID 489025). Format: functional.
A short description of experiment [11]: HepG2 cell cytotoxicity, dose response, cytotoxicity control for non-replicating M. tuberculosis project (AID 489018). Format: functional. The settings on record: Mycobacterium tuberculosis.
Experiment [12] in a line: cytotoxicity in HPDE-C7 cells, cell-based, fluorescence, HTS (AID 430). The settings on record: Homo sapiens. Format: functional.
A further experiment deals with Melanocortin receptor 4 (Homo sapiens, UniProt P32245). Description: MC4R antagonist potency on cAMP, dose response, cell-based, TR-FRET, biased antagonists (AID 602298).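 Also: antagonist potency against agonist-stimulated cAMP production.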 The class given is functional.
Experiment [13] in a line: HepG2 cell cytotoxicity, dose response, cytotoxicity control for Shn3 inhibitor project, CellTiter-Glo, cherry-picked (AID 624134). Format: functional, cell-based. Background: ATP-based viability assays read luminescence as a measure of living cells.
A short description of experiment [14]: nonselective inhibitors of cellular cAMP signaling, dose response, counter-screen for MC4R biased antagonist project, cell-based, TR-FRET cAMP detection (AID 602305).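 Also: U2OS cells stimulated with forskolin near its EC80 as the cAMP inducer; potency is for inhibition of forskolin-stimulated cAMP signaling.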 The class given is functional.
A short description of experiment [15]: Shn3 3'UTR reporter inhibitors, dose response, cell-based, Clone20 osteoblasts, firefly luciferase, cherry-picked (AID 624132).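 Also: firefly luciferase luminescence from reporter carrying the Shn3 3'UTR in osteoblasts.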 Format: functional.
A further experiment concerns the target Hexokinase HKDC1 (Homo sapiens, UniProt Q2TB90). As to the kind of experiment: HKDC1 hexokinase inhibitors, dose response, biochemical, W721R variant (AID 504729). The class given is functional.
Experiment [16] can be described thus: cytotoxicity in KRAS-transformed pancreatic duct cells, primary screen, cell-based, fluorescence, HTS (AID 431). The settings on record: Homo sapiens. Format: functional.
For the next experiment, the target named is T3, Caspase-3 (Homo sapiens, UniProt P42574).
T3 sequence (P42574 whole entry): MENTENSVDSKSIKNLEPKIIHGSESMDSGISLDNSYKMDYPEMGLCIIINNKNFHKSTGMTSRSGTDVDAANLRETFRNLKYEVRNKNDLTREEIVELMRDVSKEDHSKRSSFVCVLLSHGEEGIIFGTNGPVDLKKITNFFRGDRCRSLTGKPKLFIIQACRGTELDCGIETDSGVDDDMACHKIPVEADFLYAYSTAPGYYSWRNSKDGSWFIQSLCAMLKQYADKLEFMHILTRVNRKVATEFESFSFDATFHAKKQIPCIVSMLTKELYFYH
Description: procaspase-3 activators, dose response, biochemical, absorbance (AID 489014).

Experiment [17] addresses T4, Corticotropin-releasing factor receptor 2/Corticotropin-releasing factor-binding protein (Homo sapiens, UniProt P24387+Q13324).
T4 sequence (Q13324 whole entry): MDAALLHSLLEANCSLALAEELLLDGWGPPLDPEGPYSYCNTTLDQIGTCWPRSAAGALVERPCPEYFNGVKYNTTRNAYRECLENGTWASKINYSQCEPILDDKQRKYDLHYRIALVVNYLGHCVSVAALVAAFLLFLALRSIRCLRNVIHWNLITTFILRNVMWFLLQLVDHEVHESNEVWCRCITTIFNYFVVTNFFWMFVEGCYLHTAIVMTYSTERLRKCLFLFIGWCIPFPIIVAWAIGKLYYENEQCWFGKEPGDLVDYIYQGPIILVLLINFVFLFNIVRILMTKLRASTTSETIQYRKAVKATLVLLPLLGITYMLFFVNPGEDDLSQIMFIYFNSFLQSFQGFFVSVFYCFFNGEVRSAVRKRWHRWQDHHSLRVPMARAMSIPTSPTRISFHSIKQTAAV
T4 sequence (P24387 whole entry): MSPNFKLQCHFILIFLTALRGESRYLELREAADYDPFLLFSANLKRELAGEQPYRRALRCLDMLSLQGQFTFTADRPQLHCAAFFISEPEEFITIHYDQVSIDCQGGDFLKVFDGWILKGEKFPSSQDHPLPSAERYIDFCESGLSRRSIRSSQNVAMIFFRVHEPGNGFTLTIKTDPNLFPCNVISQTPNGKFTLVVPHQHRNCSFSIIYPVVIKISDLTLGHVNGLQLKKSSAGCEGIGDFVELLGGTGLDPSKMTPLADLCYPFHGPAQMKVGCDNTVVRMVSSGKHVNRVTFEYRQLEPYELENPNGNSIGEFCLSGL
As to the kind of experiment: activators of CRF receptor 2 with binding protein – uHTS hits, confirmation (AID 602473). The class given is functional. The settings on record: read-out: EC50_Mean.

For the next experiment, the target named is Cytochrome P450 3A4 (Homo sapiens, UniProt P08684).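 Also: CYP3A4 tested as one member of a cytochrome P450 panel screen.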
The target of a further experiment is Caspase-7 (Homo sapiens, UniProt P55210). As to the kind of experiment: procaspase-7 activators, dose response, counter-screen for procaspase-3 activator project, biochemical, absorbance (AID 489013). Background: Counterscreens check selectivity or assay interference.
The target in experiment [18] is T4, Corticotropin-releasing factor receptor 2/Corticotropin-releasing factor-binding protein. As to the kind of experiment: Dose Response confirmation of uHTS hits for small molecule antagonists of the CRF-binding protein and CRF-R2 receptor complex. The settings on record: read-out: IC50_Mean. The class given is functional.

Sequence of Melanocortin receptor 4 (P32245 whole entry): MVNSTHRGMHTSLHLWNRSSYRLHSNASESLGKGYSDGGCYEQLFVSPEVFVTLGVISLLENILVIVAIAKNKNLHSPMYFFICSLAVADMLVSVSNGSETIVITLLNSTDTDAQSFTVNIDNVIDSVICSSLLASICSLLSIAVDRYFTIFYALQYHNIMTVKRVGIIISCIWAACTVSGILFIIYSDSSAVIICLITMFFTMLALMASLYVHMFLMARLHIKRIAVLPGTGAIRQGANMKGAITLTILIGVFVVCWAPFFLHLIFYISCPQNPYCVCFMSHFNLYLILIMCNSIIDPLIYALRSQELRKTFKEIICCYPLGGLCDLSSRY
Sequence of Hexokinase HKDC1 (Q2TB90 whole entry): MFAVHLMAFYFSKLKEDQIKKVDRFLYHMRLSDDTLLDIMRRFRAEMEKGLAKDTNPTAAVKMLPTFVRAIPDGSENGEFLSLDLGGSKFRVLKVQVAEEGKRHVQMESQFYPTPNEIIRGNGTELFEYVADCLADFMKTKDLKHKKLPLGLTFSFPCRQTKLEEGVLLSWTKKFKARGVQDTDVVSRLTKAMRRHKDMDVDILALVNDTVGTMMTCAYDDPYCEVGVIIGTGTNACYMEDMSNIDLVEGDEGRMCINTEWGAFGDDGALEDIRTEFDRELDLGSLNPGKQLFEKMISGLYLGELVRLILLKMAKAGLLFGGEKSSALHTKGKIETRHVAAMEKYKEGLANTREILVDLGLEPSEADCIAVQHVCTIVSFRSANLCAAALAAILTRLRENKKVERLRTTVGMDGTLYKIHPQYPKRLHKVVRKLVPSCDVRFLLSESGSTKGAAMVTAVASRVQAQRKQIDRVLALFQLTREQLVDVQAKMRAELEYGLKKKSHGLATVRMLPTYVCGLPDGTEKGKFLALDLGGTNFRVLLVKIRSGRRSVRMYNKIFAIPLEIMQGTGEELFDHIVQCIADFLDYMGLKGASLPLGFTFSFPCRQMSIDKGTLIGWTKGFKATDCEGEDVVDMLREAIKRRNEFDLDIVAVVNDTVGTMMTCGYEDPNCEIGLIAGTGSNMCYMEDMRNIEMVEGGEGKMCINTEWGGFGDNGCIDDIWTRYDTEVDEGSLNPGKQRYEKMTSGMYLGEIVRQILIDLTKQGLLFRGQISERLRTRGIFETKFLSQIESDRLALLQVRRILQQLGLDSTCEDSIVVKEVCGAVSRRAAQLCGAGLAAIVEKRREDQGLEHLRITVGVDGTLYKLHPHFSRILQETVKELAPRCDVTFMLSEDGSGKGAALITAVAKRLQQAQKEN
Sequence of Neurotensin receptor type 1 (P30989 whole entry): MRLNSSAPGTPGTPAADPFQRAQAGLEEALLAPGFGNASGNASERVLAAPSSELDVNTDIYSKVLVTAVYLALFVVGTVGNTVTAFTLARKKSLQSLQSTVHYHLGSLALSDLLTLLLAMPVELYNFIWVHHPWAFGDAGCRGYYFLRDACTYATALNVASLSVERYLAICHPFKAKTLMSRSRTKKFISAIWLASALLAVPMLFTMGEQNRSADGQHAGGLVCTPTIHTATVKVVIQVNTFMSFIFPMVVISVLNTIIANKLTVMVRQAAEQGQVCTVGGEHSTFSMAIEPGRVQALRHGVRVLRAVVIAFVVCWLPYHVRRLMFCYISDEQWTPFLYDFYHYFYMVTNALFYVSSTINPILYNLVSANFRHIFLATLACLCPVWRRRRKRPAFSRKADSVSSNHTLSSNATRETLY
Sequence of Luciferin 4-monooxygenase (P08659 whole entry): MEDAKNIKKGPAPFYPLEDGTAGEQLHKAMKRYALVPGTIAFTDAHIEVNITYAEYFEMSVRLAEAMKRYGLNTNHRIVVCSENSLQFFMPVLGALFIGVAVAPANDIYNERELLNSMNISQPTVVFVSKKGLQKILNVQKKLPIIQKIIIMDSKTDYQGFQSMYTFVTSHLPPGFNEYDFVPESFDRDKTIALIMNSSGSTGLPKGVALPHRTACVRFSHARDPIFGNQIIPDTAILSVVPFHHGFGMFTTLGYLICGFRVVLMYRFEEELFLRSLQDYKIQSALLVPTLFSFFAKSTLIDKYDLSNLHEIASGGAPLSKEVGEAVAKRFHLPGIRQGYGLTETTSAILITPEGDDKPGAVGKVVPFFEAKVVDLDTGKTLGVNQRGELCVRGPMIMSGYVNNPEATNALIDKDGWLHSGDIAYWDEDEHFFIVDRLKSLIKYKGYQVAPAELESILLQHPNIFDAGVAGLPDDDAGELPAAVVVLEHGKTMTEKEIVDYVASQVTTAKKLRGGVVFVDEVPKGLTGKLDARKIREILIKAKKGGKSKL
Sequence of Cytochrome P450 3A4 (P08684 whole entry): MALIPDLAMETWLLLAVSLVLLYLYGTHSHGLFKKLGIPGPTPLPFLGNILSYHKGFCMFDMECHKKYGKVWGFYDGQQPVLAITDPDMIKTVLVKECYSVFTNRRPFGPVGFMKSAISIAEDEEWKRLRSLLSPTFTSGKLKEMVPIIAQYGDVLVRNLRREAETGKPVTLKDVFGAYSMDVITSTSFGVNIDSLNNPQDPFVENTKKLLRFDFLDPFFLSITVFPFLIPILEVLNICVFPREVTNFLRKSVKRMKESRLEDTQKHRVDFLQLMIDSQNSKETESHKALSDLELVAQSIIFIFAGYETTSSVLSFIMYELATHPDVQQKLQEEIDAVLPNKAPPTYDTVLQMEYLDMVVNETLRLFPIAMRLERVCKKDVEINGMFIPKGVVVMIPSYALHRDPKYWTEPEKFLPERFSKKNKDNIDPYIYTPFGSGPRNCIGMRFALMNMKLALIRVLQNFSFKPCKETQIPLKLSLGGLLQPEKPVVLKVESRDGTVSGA
Sequence of Cyclin-dependent kinase 5/CDK5 activator 1 (Q00535 whole entry): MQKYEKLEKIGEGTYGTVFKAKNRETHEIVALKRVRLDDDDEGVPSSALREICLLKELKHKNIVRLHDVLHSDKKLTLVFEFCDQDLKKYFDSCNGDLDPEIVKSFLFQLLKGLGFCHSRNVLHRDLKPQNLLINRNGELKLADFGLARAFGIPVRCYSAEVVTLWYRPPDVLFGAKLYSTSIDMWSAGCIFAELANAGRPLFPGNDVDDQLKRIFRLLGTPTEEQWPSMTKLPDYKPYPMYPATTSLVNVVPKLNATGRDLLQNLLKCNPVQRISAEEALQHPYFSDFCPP
Sequence of Cyclin-dependent kinase 5/CDK5 activator 1 (Q15078 whole entry, further chain): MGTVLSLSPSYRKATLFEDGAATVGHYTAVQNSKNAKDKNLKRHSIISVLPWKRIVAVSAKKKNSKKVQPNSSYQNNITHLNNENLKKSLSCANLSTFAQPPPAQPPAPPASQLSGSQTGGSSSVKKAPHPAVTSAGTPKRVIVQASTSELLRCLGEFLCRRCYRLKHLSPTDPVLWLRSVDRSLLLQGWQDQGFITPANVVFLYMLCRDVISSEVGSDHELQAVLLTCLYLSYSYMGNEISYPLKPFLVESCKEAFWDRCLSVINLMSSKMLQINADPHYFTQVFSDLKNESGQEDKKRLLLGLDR
Sequence of Caspase-7 (P55210 24-198 limits assumed): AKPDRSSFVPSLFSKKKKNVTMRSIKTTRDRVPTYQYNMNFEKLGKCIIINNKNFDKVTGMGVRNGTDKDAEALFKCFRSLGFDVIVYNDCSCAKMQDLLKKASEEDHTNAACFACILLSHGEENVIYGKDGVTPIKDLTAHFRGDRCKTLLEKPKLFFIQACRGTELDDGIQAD
Sequence of Caspase-7 (P55210 207-303 limits assumed): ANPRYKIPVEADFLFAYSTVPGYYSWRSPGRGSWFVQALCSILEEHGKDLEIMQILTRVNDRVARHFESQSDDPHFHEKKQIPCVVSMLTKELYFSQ

The AC50 is the concentration at which the activity in the assay is half-maximal. A word on the CC50: it is the concentration giving 50% cytotoxicity. Take `Cc1cccc(N2C(=O)NC(=O)/C(=C\c3cccn3-c3ccc(Cl)cc3)C2=O)c1`: in experiment [1], the EC50 is 9.06 µM (active). Moreover, in experiment [2], the AC50 is 8.91 µM (active). In the experiment on Vero, the CC50 was 23.4 µM (active).
Take `CCOc1ccc(OCC(=O)Nc2nccs2)cc1`: the EC50 in experiment [3] was 5.61 µM (active); in experiment [4] it was 6.85 µM (active); in [5], 9.78 µM (active); in experiment [7] it was 8.12 µM (active); in experiment [8], 2.37 µM (active). For the same compound, the IC50 in “cells” is 20.2 µM (active). Also, the AC50 in the experiment on HEK293 was 2.74 µM (active); in [6], 31.3 µM (active); in experiment [9], 21.2 µM (active).
With `CCN(CC)c1ccc2c(c1)oc(=O)c1c(Cl)cc(=O)oc12`, the EC50 is 14.6 µM (active) at Estrogen receptor, 14.2 µM (active) in experiment [12] and 12.1 µM (active) in [16]. Moreover, the CC50 in [10] was > 40 µM (active); in [11] it was 11.7 µM (active). In addition, the IC50 in “cells” is 14.6 µM (active); at Melanocortin receptor 4 it was > 64.6 µM (inactive); in experiment [14] it was > 64.6 µM (inactive); on Hexokinase HKDC1, 22.4 µM (inactive). Further, the AC50 in experiment [13] was 8.09 µM (active); in experiment [15], 2.22 µM (active).
As for `COC(=O)C1=C(NC(=O)c2cccc(OC)c2)CCS1`, the EC50 at Caspase-3 was > 85.3 µM (inactive); in experiment [17] it was > 53 µM (inactive); on Caspase-7, > 85.3 µM (inactive). Further, on Cytochrome P450 3A4, the AC50 is 25.1 µM (inconclusive). The IC50 in experiment [18] is > 47.1 µM (inactive).
